Source: patent US8957063B2, “Amine and ether compounds which modulate the CB2 receptor” (priority 2008, dated 2015)

Target: T1, human CB2R (Homo sapiens, UniProt P34972)
T1 construct: host or cells: CHO cells
Assay: CB2R mediated modulation of cAMP synthesis
Assay type: cell-based
Procedure: B. CB2R Mediated Modulation of cAMP Synthesis:
Compounds of the invention were evaluated for their CB2 agonist or inverse agonistic activity in accordance with the following experimental method.
CHO cells expressing human CB2R (Euroscreen) were plated at a density of 5000 cells per well in 384 well plates and incubated overnight at 37° C. After removing the media, the cells were treated with test compounds diluted in stimulation buffer containing 1 mM IBMX, 0.25% BSA and 10 uM Forskolin. The assay was incubated for 30 minutes at 37° C. Cells were lysed and the cAMP concentration was measured using DiscoverX-XS cAMP kit, following the manufacturer's protocol. In this setting, agonists will decrease forskolin induced production of cAMP while inverse agonists will further increase forskolin induced production of cAMP. EC50 of agonists were calculated as follows. The maximal amount of cAMP produced by forskolin compared to the level of cAMP inhibited by 1 uM CP55940 is defined as 100%. The EC50 value of each test compound was determined as the concentration at which 50% of the forskolin-stimulated cAMP synthesis was inhibited. Data was analyzed using a four-parameter logistic model. (Model 205 of XLfit 4.0).

T1 sequence (P34972 whole entry): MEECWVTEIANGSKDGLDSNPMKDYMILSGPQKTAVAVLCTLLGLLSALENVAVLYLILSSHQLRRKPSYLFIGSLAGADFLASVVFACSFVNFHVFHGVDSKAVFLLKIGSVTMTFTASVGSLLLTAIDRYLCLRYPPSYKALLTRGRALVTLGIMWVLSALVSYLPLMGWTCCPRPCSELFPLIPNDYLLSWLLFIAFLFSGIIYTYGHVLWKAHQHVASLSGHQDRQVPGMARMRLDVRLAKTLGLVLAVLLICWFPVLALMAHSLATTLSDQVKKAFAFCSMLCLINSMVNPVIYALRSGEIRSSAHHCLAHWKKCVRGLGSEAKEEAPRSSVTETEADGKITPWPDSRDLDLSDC

## CN(C(=O)N1CCS(=O)(=O)CC1)C(C)(C)C(=O)Nc1cc(C(C)(C)C)on1 [Example 51, 1,1-Dioxo-1λ6-thiomorpholine-4-carboxylic acid [1-(5-tert-butyl-isoxazol-3-ylcarbamoyl)-1-methyl-ethyl]-methyl-amide]
  EC50: 39 nM
